{"source": "patent US9539272B2", "about": "“HDAC 6 inhibitor-based methods for treating cancer” (SLOAN-KETTERING INSTITUTE FOR CANCER RESEARCH, priority 2009, dated 2017)", "key": {"[1]": {"system": "LNCaP HDAC 6 knockdown cells", "assay": "Cell viability, LNCaP HDAC 6 knockdown cells", "type": "cell-based, human", "description": "shRNA lentiviral particles targeting different regions of HDAC6 mRNA, HDAC6 KD1 (HDAC6 knockdown 1) at 1.7×10^7 TU/ml and HDAC6 KD2 (HDAC6 knockdown 2) at 1.9×10^7 TU/ml, and a non-targeting ‘scramble’ shRNA control particles (#SHC002V) at 1.1×10^7 TU/ml, were purchased from Sigma-Aldrich and transfected according to the manufacturer's instructions using polybrene (Millipore). The 21-nucleotide sequence corresponding to HDAC6 mRNA for HDAC6 KD1 is 5′-[…]-3′ and for HDAC6 KD2 is 5′-[…]-3′. For each shRNA, 5×10^5 cells were infected at an MOT of 2."}, "LNCaP cells [2]": {"system": "LNCaP cells", "assay": "Cell growth and viability by trypan blue exclusion, LNCaP", "quoted_text": "(§1) 5×10^4 cells were seeded per well in a 24-well plate and cultured overnight prior to treating with the compound and/or other agents as indicated for each study. Cells were harvested at 24, 48 and 72 hrs after treatment by trypsin digestion. […] At least three independent analyses were performed for each time point.\n(§2) To monitor cell growth and viability, cells were seeded in triplicate at 5×10^4 cells in 1 ml of medium in 24-well plates. The drugs were added at the indicated concentrations 24 h after seeding. Cells were harvested by trypsin digestion at 24 h, 48 h and 72 h following drug additions. Cell number and viability were determined by trypan blue exclusion."}, "MCF-7 cells": {"system": "MCF-7 cells", "assay": "Cell growth and viability by trypan blue exclusion, MCF-7", "type": "cell-based, human", "details": "MCF-7, 72 hrs; 8 μM tubacin, 5 μM SAHA, […] doxorubicin, 100 μM etoposide, alone or plus 8 μM tubacin", "quoted_text": "as §1, §2"}, "LNCaP cells [3]": {"system": "LNCaP cells", "assay": "Cell cycle analysis by flow cytometry, LNCaP", "type": "cell-based, human", "details": "24 h, propidium iodide", "experimental": "Cells were harvested at 24 h culture with the indicated drugs, washed with PBS and fixed in methanol. Cells were then resuspended in a buffer containing […] propidium iodide and […] RNase A. Samples were analysed by flow cytometry using a Becton Dickinson FACSCalibur flow cytometer. Data were collected for 10,000 events and analyzed using FlowJo software."}, "LNCaP cells [4]": {"system": "LNCaP cells", "assay": "Quantitative real-time PCR in LNCaP cells", "type": "cell-based, human", "details": "for expression of Mcm4, Mcm6, Cdt1 and Psf2: quantitative real-time PCR", "experimental": "[…] of total RNA was reverse-transcribed using the Thermoscript RT-PCR system (Invitrogen) at 52° C. for 1 h. 20 ng of resultant cDNA was used in a Q-PCR reaction using an 7500 Real-Time PCR System (Applied Biosystems) using predesigned primers for DDIT3, DDIT4, Mcm4, Mcm6, Cdt1, Psf2 and GAPDH (Applied Biosystems). Amplification was carried for 40 cycles (95° C. for 15 sec, 60° C. for 1 min). To calculate the efficiency of the PCR reaction, and to assess the sensitivity of each assay, we performed a 6 point standard curve (5, 1.7, 0.56, 0.19, 0.062, and 0.021 ng). Triplicate CT values were averaged, amounts of target were interpolated from the standard curves and normalized to GAPDH (assay Hs99999909_m1)."}, "recombinant human HDAC1": {"target": "recombinant human HDAC1 (Homo sapiens, UniProt Q13547)", "sequence (Q13547 whole entry)": "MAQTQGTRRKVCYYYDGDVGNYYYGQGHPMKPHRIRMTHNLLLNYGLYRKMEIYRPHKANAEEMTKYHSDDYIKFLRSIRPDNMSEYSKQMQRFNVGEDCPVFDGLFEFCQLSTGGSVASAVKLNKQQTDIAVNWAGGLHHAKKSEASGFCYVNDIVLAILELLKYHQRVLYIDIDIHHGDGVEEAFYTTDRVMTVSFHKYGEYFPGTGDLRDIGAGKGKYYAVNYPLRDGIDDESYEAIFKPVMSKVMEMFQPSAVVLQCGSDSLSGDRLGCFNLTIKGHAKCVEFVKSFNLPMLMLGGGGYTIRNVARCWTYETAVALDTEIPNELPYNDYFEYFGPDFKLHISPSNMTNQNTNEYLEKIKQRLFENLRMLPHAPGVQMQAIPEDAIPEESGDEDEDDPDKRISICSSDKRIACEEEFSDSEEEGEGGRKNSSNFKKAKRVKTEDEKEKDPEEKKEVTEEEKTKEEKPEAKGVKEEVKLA", "assay": "In vitro HDAC assay with fluorogenic substrate, HDAC 1", "quoted_text": "Inhibition of HDAC 1 and HDAC 6 were analyzed with a fluorogenic substrate according to manufacture's protocol (HDAC assay reagents were purchased from BPS Biosciences, San Diego, Calif.). 50 μl reaction mixture, which contains 1×HDAC assay buffer, 5 units of recombinant human HDAC1 or HDAC 6, 10 μM substrate 3 and 1 μl inhibitor in DMSO, was incubated at 37° C. for 1 hour. […] The fluorescence intensity was measured at excitation of 360 nm and emission of 460 nm with SpectraMax Gemini XS microplate reader (Molecular Devices, Sunny Calif.)."}, "γH2AX": {"system": "γH2AX", "assay": "Accumulation of γH2AX in LNCaP cells (Western blot, ImageJ quantitation)", "type": "cell-based, human", "details": "24 h", "quoted_text": "1×10^6 cells were seeded in a 10 cm diameter cell culture dish and cultured overnight prior to addition of the indicated drugs, washed with PBS, harvested by trypsinisation and lysed in RIPA buffer (50 mM Tris-HCL pH8.0, 120 mM NaCl, 0.5 mM EDTA, 0.5% NP-40). […] Quantitation of western blots was performed using ImageJ."}, "HFS cells": {"system": "HFS cells", "assay": "Cell viability, normal human foreskin cells (HFS)", "type": "cell-based", "details": "8 μM tubacin, 5 μM SAHA, alone or together", "quoted_text": "as §1, §2"}, "LNCaP cells [5]": {"system": "LNCaP cells", "assay": "Microarray analysis of gene expression in LNCaP cells", "type": "cell-based, human", "design": "Total gene number: dose or concentration left out as unconfirmed", "experimental": "Alterations in gene expression were evaluated by microarray using the Illumina human cDNA array containing cDNA probes representing the whole genome (10000 genes). […] Triplicate samples were prepared for each drug treatment at each time point. Poly(A)+ mRNA was isolated from cells using Trizol reagent according to manufacturer's protocol (Invitrogen). The data was analyzed using the Bioconductor packages (www.bioconductor.com) for the R statistical system. The output from Beadstudio was processed using the LUMI package. The normalization method used was quantile and the signal levels were log (base 2) transformed. To determine genes that are differentially expressed between the various sample types, the LIMMA package was used."}, "WI38 cells": {"system": "WI38 cells", "assay": "Cell viability, normal human embryonic fibroblast WI38", "type": "cell-based", "details": "8 μM tubacin, 5 μM SAHA, alone or together", "quoted_text": "as §1"}, "[6]": {"system": "acetylated tubulin and acetylated histone H3 in A549 cells", "details": "24 hrs, tubacin 0.2, 2 or 20 μM; cited from earlier work"}}, "note": "Where “and” joins values, the source holds several entries; their conditions need not be identical. Equal values may be shown once. Entries after “also recorded” stand apart in the source; their conditions may differ.", "data": [{"smiles": "COc1cccc2c1C(=O)c1c(O)c3c(c(O)c1C2=O)C[C@@](O)(C(=O)CO)C[C@@H]3O[C@H]1C[C@H](N)[C@H](O)[C@H](C)O1", "note": "[doxorubicin]", "values": [{"measurement": "cell death", "setting": "[1]; LNCaP HDAC 6 knock down, 10 nM doxorubicin, 72 hrs", "result": 85, "unit": "%"}, {"measurement": "cell death", "setting": "[1]; LNCaP HDAC 6 knock down, 100 nM doxorubicin, 72 hrs", "result": 90, "unit": "%"}, {"measurement": "cell death", "setting": "[1]; LNCaP HDAC 6 knock down, 500 nM doxorubicin, 72 hrs", "result": 95, "unit": "%"}, {"measurement": "cell death", "setting": "LNCaP cells [2]; LNCaP, 5 nM doxorubicin, alone or plus 8 μM tubacin, 48 hrs", "result": 40, "unit": "%"}, {"measurement": "rate of cell growth", "setting": "LNCaP cells [2]; LNCaP, 10 nM doxorubicin, alone or plus 8 μM tubacin", "result": "decreased"}, {"measurement": "cell death", "setting": "LNCaP cells [2]; LNCaP, […] doxorubicin, alone or plus 8 μM tubacin, 48 hrs", "result": 80, "unit": "%"}, {"measurement": "cell death", "setting": "LNCaP cells [2]; wild type LNCaP, 10 nM doxorubicin, 72 hrs", "result": 45, "unit": "%"}, {"measurement": "cell death", "setting": "LNCaP cells [2]; wild type LNCaP, 100 nM doxorubicin, 72 hrs", "result": 75, "unit": "%"}, {"measurement": "cell death", "setting": "LNCaP cells [2]; wild type LNCaP, 500 nM doxorubicin, 72 hrs", "result": 85, "unit": "%"}, {"measurement": "cell death", "setting": "MCF-7 cells", "result": 25, "unit": "%"}, {"measurement": "rate of cell growth", "setting": "MCF-7 cells", "result": "markedly decreased"}]}, {"smiles": "COc1cc([C@@H]2c3cc4c(cc3[C@@H](O[C@@H]3O[C@@H]5CO[C@@H](C)O[C@H]5[C@H](O)[C@H]3O)[C@H]3COC(=O)[C@H]23)OCO4)cc(OC)c1O", "note": "[etoposide]", "values": [{"measurement": "cell death", "setting": "[1]; LNCaP HDAC 6 knockdown, 10 μM etoposide, 48 hrs", "result": 20, "unit": "%"}, {"measurement": "cell death", "setting": "[1]; LNCaP HDAC 6 knockdown, 50 μM etoposide, 48 hrs", "result": 35, "unit": "%"}, {"measurement": "cell death", "setting": "[1]; LNCaP HDAC 6 knockdown, 100 μM etoposide, 48 hrs", "result": 55, "unit": "%"}, {"measurement": "cell death", "setting": "LNCaP cells [2]; LNCaP, 50 μM etoposide, alone or plus 8 μM tubacin, 72 hrs", "result": 50, "unit": "%"}, {"measurement": "cell death", "setting": "LNCaP cells [2]; LNCaP, 100 μM etoposide, alone or plus 8 μM tubacin, 72 hrs", "result": 80, "unit": "%"}, {"measurement": "cell death", "setting": "LNCaP cells [2]; wild type LNCaP, 10 μM etoposide, 48 hrs", "result": 10, "unit": "%"}, {"measurement": "cell death", "setting": "LNCaP cells [2]; wild type LNCaP, 50 μM etoposide, 48 hrs", "result": 30, "unit": "%"}, {"measurement": "cell death", "setting": "LNCaP cells [2]; wild type LNCaP, 100 μM etoposide, 48 hrs", "result": 40, "unit": "%"}, {"measurement": "cell cycle distribution", "setting": "LNCaP cells [3]", "result": "small increase in cells in G1"}, {"measurement": "cell death", "setting": "MCF-7 cells", "result": 30, "unit": "%"}, {"measurement": "rate of cell growth", "setting": "MCF-7 cells", "result": "markedly decreased"}, {"measurement": "expression of Mcm4, Mcm6, Cdt1 and Psf2", "setting": "LNCaP cells [4]", "result": "downregulated"}]}, {"smiles": "O=C(CCCCCCC(=O)Nc1ccc([C@H]2O[C@@H](CSc3nc(-c4ccccc4)c(-c4ccccc4)o3)C[C@@H](c3ccc(CO)cc3)O2)cc1)NO", "note": "[tubacin]", "values": [{"measurement": "IC50", "setting": "recombinant human HDAC1", "result": 82, "unit": "nM"}, {"measurement": "accumulation of γH2AX", "setting": "γH2AX", "result": "increased"}, {"measurement": "cell death", "setting": "HFS cells", "result": "did not cause cell death"}, {"measurement": "DDIT3 gene expression change", "setting": "LNCaP cells [5]; 2 h", "result": "* (No detectable change of ≧2-fold)"}, {"measurement": "Total gene number", "setting": "LNCaP cells [5]; 2 h, genes changed ≧2-fold", "result": 1}, {"measurement": "Downregulated genes", "setting": "LNCaP cells [5]; 2 h, ≧2-fold", "result": 0}, {"measurement": "Upregulated genes", "setting": "LNCaP cells [5]; 2 h, ≧2-fold", "result": 1}, {"measurement": "DDIT4 gene expression change", "setting": "LNCaP cells [5]; 8 h", "result": 5.54, "unit": "fold"}, {"measurement": "Downregulated genes", "setting": "LNCaP cells [5]; 8 h, ≧2-fold", "result": 1}, {"measurement": "Total gene number", "setting": "LNCaP cells [5]; 8 h, ≧2-fold", "result": 7}, {"measurement": "Upregulated genes", "setting": "LNCaP cells [5]; 8 h, ≧2-fold", "result": 6}, {"measurement": "DDIT3 gene expression change", "setting": "LNCaP cells [5]; 24 h", "result": "7 fold and 7.04 fold"}, {"measurement": "DDIT4 gene expression change", "setting": "LNCaP cells [5]; 24 h", "result": 6.8, "unit": "fold"}, {"measurement": "Downregulated genes", "setting": "LNCaP cells [5]; 24 h, ≧2-fold", "result": 72}, {"measurement": "Total gene number", "setting": "LNCaP cells [5]; 24 h, ≧2-fold", "result": 225}, {"measurement": "Upregulated genes", "setting": "LNCaP cells [5]; 24 h, ≧2-fold", "result": 153}, {"measurement": "cell death", "setting": "LNCaP cells [2]; LNCaP, tubacin alone (8 μM), up to 72 hrs", "result": "did not cause cell death; also recorded: did not induce LNCaP cell death"}, {"measurement": "cell death", "setting": "WI38 cells", "result": "did not cause cell death"}, {"measurement": "cell cycle distribution", "setting": "LNCaP cells [3]", "result": "increase in G1 arrest"}, {"measurement": "cell death", "setting": "MCF-7 cells", "result": "did not induce MCF-7 cell death"}, {"measurement": "rate of cell growth", "setting": "MCF-7 cells", "result": "somewhat decreased"}, {"measurement": "accumulation of acetylated histone H3", "setting": "[6]", "result": "but not acetylated histone H3"}, {"measurement": "accumulation of acetylated tubulin", "setting": "[6]", "result": "caused an accumulation"}, {"measurement": "DDIT4 expression by quantitative real-time PCR", "setting": "LNCaP cells [4]", "result": "upregulation"}, {"measurement": "expression of Mcm4, Mcm6, Cdt1 and Psf2", "setting": "LNCaP cells [4]", "result": "downregulated"}]}]}
